Results taken from patent US8748415B2 (priority 2011, dated 2014).

These compounds were tested on recombinant NL4-3 virus (Renilla luciferase in nef, Gag P373S) (assay: HIV cell culture assay (luciferase activity in MT-2 cells infected with NLRluc recombinant virus)). Conditions: NL43, MT-2 cells infected 4-5 days with NLRluc recombinant virus, class symbol.
Assay type: cell-based
Procedure, shortened: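 Activity was read as luciferase output (Dual Luciferase reagents premixed with lysis solution) after 4–5 days of infection in serially diluted inhibitor. Host cells were MT-2 in 10% FBS RPMI. The reporter virus came from transfected 293T cells and was titered on MT-2.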
`C=C(C)[C@@H]1CC[C@]2(CNCCC(=O)N3CCOCC3)CC[C@]3(C)[C@H](CC[C@@H]4[C@@]5(C)CC=C(c6ccc(C(=O)O)cc6)C(C)(C)[C@@H]5CC[C@]43C)[C@@H]12` [Example 107, 4-((1R,3aS,5aR,5bR,7aR,11aS,11bR,13aR,13bR)-5a,5b,8,8,11a-pentamethyl-3a-((3-morpholino-3-oxopropylamino)methyl)-1-(prop-1-en-2-yl)-2,3,3a,4,5,5a,5b,6,7,7a,8,11,11a,11b,12,13,13a,13b-octadecahydro-1H-cyclopenta[a]chrysen-9-yl)benzoic acid] showed an EC50 of under 100 nM. `C=C(C)[C@@H]1CC[C@]2(CNCC(=O)N3CCS(=O)(=O)CC3)CC[C@]3(C)[C@H](CC[C@@H]4[C@@]5(C)CC=C(c6ccc(C(=O)O)cc6)C(C)(C)[C@@H]5CC[C@]43C)[C@@H]12` [Example 108, 4-((1R,3aS,5aR,5bR,7aR,11aS,11bR,13aR,13bR)-3a-(((2-(1,1-dioxido-4-thiomorpholinyl)-2-oxoethyl)amino)methyl)-1-isopropenyl-5a,5b,8,8,11a-pentamethyl-2,3,3a,4,5,5a,5b,6,7,7a,8,11,11a,11b,12,13,13a,13b-octadecahydro-1H-cyclopenta[a]chrysen-9-yl)benzoic acid] was tested, and the EC50 was under 100 nM. Compound `C=C(C)[C@@H]1CC[C@]2(CNCC(=O)N3CCCC3)CC[C@]3(C)[C@H](CC[C@@H]4[C@@]5(C)CC=C(c6ccc(C(=O)O)cc6)C(C)(C)[C@@H]5CC[C@]43C)[C@@H]12` [Example 109, 4-((1R,3aS,5aR,5bR,7aR,11aS,11bR,13aR,13bR)-5a,5b,8,8,11a-pentamethyl-3a-((2-oxo-2-(pyrrolidin-1-yl)ethylamino)methyl)-1-(prop-1-en-2-yl)-2,3,3a,4,5,5a,5b,6,7,7a,8,11,11a,11b,12,13,13a,13b-octadecahydro-1H-cyclopenta[a]chrysen-9-yl)benzoic acid] has an EC50 of under 100 nM. Work on `C=C(C)[C@@H]1CC[C@]2(CNCC(=O)N3CCCCC3)CC[C@]3(C)[C@H](CC[C@@H]4[C@@]5(C)CC=C(c6ccc(C(=O)O)cc6)C(C)(C)[C@@H]5CC[C@]43C)[C@@H]12` [Example 110, 4-((1R,3aS,5aR,5bR,7aR,11aS,11bR,13aR,13bR)-5a,5b,8,8,11a-pentamethyl-3a-((2-oxo-2-(piperidin-1-yl)ethylamino)methyl)-1-(prop-1-en-2-yl)-2,3,3a,4,5,5a,5b,6,7,7a,8,11,11a,11b,12,13,13a,13b-octadecahydro-1H-cyclopenta[a]chrysen-9-yl)benzoic acid] yielded an EC50 of under 100 nM. For `C=C(C)[C@@H]1CC[C@]2(CNCC(=O)N3CCC(C(=O)OCC)CC3)CC[C@]3(C)[C@H](CC[C@@H]4[C@@]5(C)CC=C(c6ccc(C(=O)O)cc6)C(C)(C)[C@@H]5CC[C@]43C)[C@@H]12` [Example 111, 4-((1R,3aS,5aR,5bR,7aR,11aS,11bR,13aR,13bR)-3a-((2-(4-(ethoxycarbonyl)piperidin-1-yl)-2-oxoethylamino)methyl)-5a,5b,8,8,11a-pentamethyl-1-(prop-1-en-2-yl)-2,3,3a,4,5,5a,5b,6,7,7a,8,11,11a,11b,12,13,13a,13b-octadecahydro-1H-cyclopenta[a]chrysen-9-yl)benzoic acid], the EC50 was under 100 nM. `C=C(C)[C@@H]1CC[C@]2(CNCC(=O)N3CCC(C(=O)O)CC3)CC[C@]3(C)[C@H](CC[C@@H]4[C@@]5(C)CC=C(c6ccc(C(=O)O)cc6)C(C)(C)[C@@H]5CC[C@]43C)[C@@H]12` [Example 112, 1-(2-(((1R,3aS,5aR,5bR,7aR,11aS,11bR,13aR,13bR)-9-(4-carboxyphenyl)-5a,5b,8,8,11a-pentamethyl-1-(prop-1-en-2-yl)-2,3,3a,4,5,5a,5b,6,7,7a,8,11,11a,11b,12,13,13a,13b-octadecahydro-1H-cyclopenta[a]chrysen-3a-yl)methylamino)acetyl)piperidine-4-carboxylic acid] was tested, and the EC50 was under 100 nM. Compound `C=C(C)[C@@H]1CC[C@]2(CNCC(=O)N3CCN(S(=O)(=O)N(C)C)CC3)CC[C@]3(C)[C@H](CC[C@@H]4[C@@]5(C)CC=C(c6ccc(C(=O)O)cc6)C(C)(C)[C@@H]5CC[C@]43C)[C@@H]12` [Example 113, 4-((1R,3aS,5aR,5bR,7aR,11aS,11bR,13aR,13bR)-3a-((2-(4-(N,N-dimethylsulfamoyl)piperazin-1-yl)-2-oxoethylamino)methyl)-5a,5b,8,8,11a-pentamethyl-1-(prop-1-en-2-yl)-2,3,3a,4,5,5a,5b,6,7,7a,8,11,11a,11b,12,13,13a,13b-octadecahydro-1H-cyclopenta[a]chrysen-9-yl)benzoic acid] has an EC50 of under 100 nM. `C=C(C)[C@@H]1CC[C@]2(CNCC(=O)N3CCC[C@@H]3C(=O)O)CC[C@]3(C)[C@H](CC[C@@H]4[C@@]5(C)CC=C(c6ccc(C(=O)O)cc6)C(C)(C)[C@@H]5CC[C@]43C)[C@@H]12` [Example 114, (R)-1-(2-(((1R,3aS,5aR,5bR,7aR,11aS,11bR,13aR,13bR)-9-(4-carboxyphenyl)-5a,5b,8,8,11a-pentamethyl-1-(prop-1-en-2-yl)-2,3,3a,4,5,5a,5b,6,7,7a,8,11,11a,11b,12,13,13a,13b-octadecahydro-1H-cyclopenta[a]chrysen-3a-yl)methylamino)acetyl)pyrrolidine-2-carboxylic acid] gave an EC50 of under 100 nM. Work on `C=C(C)[C@@H]1CC[C@]2(CNC3(C(=O)N4CCS(=O)(=O)CC4)CC3)CC[C@]3(C)[C@H](CC[C@@H]4[C@@]5(C)CC=C(c6ccc(C(=O)O)cc6)C(C)(C)[C@@H]5CC[C@]43C)[C@@H]12` [Example 116, 4-((1R,3aS,5aR,5bR,7aR,11aS,11bR,13aR,13bR)-3a-(((1-((1,1-dioxido-4-thiomorpholinyl)carbonyl)cyclopropyl)amino)methyl)-1-isopropenyl-5a,5b,8,8,11a-pentamethyl-2,3,3a,4,5,5a,5b,6,7,7a,8,11,11a,11b,12,13,13a,13b-octadecahydro-1H-cyclopenta[a]chrysen-9-yl)benzoic acid] yielded an EC50 of under 100 nM. Work on `C=C(C)[C@@H]1CC[C@]2(CNCCC(=O)N3CCC(F)(F)CC3)CC[C@]3(C)[C@H](CC[C@@H]4[C@@]5(C)CC=C(c6ccc(C(=O)O)cc6)C(C)(C)[C@@H]5CC[C@]43C)[C@@H]12` [Example 117, 4-((1R,3aS,5aR,5bR,7aR,11aS,11bR,13aR,13bR)-3a-((3-(4,4-difluoropiperidin-1-yl)-3-oxopropylamino)methyl)-5a,5b,8,8,11a-pentamethyl-1-(prop-1-en-2-yl)-2,3,3a,4,5,5a,5b,6,7,7a,8,11,11a,11b,12,13,13a,13b-octadecahydro-1H-cyclopenta[a]chrysen-9-yl)benzoic acid] yielded an EC50 of under 100 nM. `C=C(C)[C@@H]1CC[C@]2(CNCCC(=O)N3CCS(=O)(=O)CC3)CC[C@]3(C)[C@H](CC[C@@H]4[C@@]5(C)CC=C(c6ccc(C(=O)O)cc6)C(C)(C)[C@@H]5CC[C@]43C)[C@@H]12` [Example 118, 4-((1R,3aS,5aR,5bR,7aR,11aS,11bR,13aR,13bR)-3a-(((3-(1,1-dioxido-4-thiomorpholinyl)-3-oxopropyl)amino)methyl)-1-isopropenyl-5a,5b,8,8,11a-pentamethyl-2,3,3a,4,5,5a,5b,6,7,7a,8,11,11a,11b,12,13,13a,13b-octadecahydro-1H-cyclopenta[a]chrysen-9-yl)benzoic acid] was tested, and the EC50 was under 100 nM. Compound `C=C(C)[C@@H]1CC[C@]2(CNCCC(=O)N3CCn4c(nnc4C(F)(F)F)C3)CC[C@]3(C)[C@H](CC[C@@H]4[C@@]5(C)CC=C(c6ccc(C(=O)O)cc6)C(C)(C)[C@@H]5CC[C@]43C)[C@@H]12` [Example 119] has an EC50 of under 100 nM. With `C=C(C)[C@@H]1CC[C@]2(CNCCC(=O)N3CCS(=O)(=O)C3)CC[C@]3(C)[C@H](CC[C@@H]4[C@@]5(C)CC=C(c6ccc(C(=O)O)cc6)C(C)(C)[C@@H]5CC[C@]43C)[C@@H]12` [Example 120, 4-((1R,3aS,5aR,5bR,7aR,11aS,11bR,13aR,13bR)-3a-(((3-(1,1-dioxido-1,3-thiazolidin-3-yl)-3-oxopropyl)amino)methyl)-1-isopropenyl-5a,5b,8,8,11a-pentamethyl-2,3,3a,4,5,5a,5b,6,7,7a,8,11,11a,11b,12,13,13a,13b-octadecahydro-1H-cyclopenta[a]chrysen-9-yl)benzoic acid] the EC50 was under 100 nM. In the case of `C=C(C)[C@@H]1CC[C@]2(CNCCC(=O)N3C[C@H]4CC[C@@H](C3)N4C)CC[C@]3(C)[C@H](CC[C@@H]4[C@@]5(C)CC=C(c6ccc(C(=O)O)cc6)C(C)(C)[C@@H]5CC[C@]43C)[C@@H]12` [Example 121, 4-((1R,3aS,5aR,5bR,7aR,11aS,11bR,13aR,13bR)-5a,5b,8,8,11a-pentamethyl-3a-((3-((1R,5S)-8-methyl-3,8-diazabicyclo[3.2.1]octan-3-yl)-3-oxopropylamino)methyl)-1-(prop-1-en-2-yl)-2,3,3a,4,5,5a,5b,6,7,7a,8,11,11a,11b,12,13,13a,13b-octadecahydro-1H-cyclopenta[a]chrysen-9-yl)benzoic acid], the EC50 is reported as under 100 nM.

Same assay, conditions: NL43, MT-2 cells infected 4-5 days with NLRluc recombinant virus, numeric value
Compound `C=C(C)[C@@H]1CC[C@]2(CNCC(=O)N3CCC(F)(F)CC3)CC[C@]3(C)[C@H](CC[C@@H]4[C@@]5(C)CC=C(c6ccc(C(=O)O)cc6)C(C)(C)[C@@H]5CC[C@]43C)[C@@H]12` [Example 115, 4-((1R,3aS,5aR,5bR,7aR,11aS,11bR,13aR,13bR)-3a-((2-(4,4-difluoropiperidin-1-yl)-2-oxoethylamino)methyl)-5a,5b,8,8,11a-pentamethyl-1-(prop-1-en-2-yl)-2,3,3a,4,5,5a,5b,6,7,7a,8,11,11a,11b,12,13,13a,13b-octadecahydro-1H-cyclopenta[a]chrysen-9-yl)benzoic acid] has an EC50 of 3 nM.
